Results: patent US9453026B2, “ACC inhibitors and uses thereof” (Gilead Apollo, Inc., priority 2011, dated 2016)

Biological target: ACC2 (Homo sapiens, UniProt O00763)
Assay: In vitro ACC2 inhibition assay (ADP-Glo)
Assay type: biochemical
Conditions: read-out: ACC2
Procedure: An exemplary procedure for the in vitro ACC inhibition assay, which can be used to determine the inhibitory action of compounds of the invention toward either ACC1 or ACC2, follows. The ADP-Glo™ Kinase Assay kit from Promega was used. The ADP-Glo™ Kinase Assay is a luminescent ADP detection assay to measure enzymatic activity by quantifying the amount of ADP produced during an enzyme reaction. The assay is performed in two steps; first, after the enzyme reaction, an equal volume of ADP-Glo™ Reagent is added to terminate the reaction and deplete the remaining ATP. Second, the Kinase Detection Reagent is added to simultaneously convert ADP to ATP and allow the newly synthesized ATP to be measured using a luciferase/luciferin reaction. Luminescence can be correlated to ADP concentrations by using an ATP-to-ADP conversion curve. The detailed procedure is as follows. 50 μL of the compound being tested (600 uM in DMSO) was added to a 384-well dilution plate. The compound was diluted 1:3 in succession in DMSO for each row for 11 wells. 0.5 μL ACC2 working solution was added to 384-well white Optiplate assay plate. 0.5 μL diluted compound solution in each column from step 2 to assay plate, each row containing 2 replicates. […] The plates were incubated at room temperature for 15 minutes. 5 μL substrate working solution was added to each well to initiate reaction. […] Plates were incubated at room temperature for 60 minutes. 10 μL ADP glo reagent was added. Plates were incubated at room temperature for 40 minutes. 20 μL kinase detection reagent was added.
Data for each concentration, as well as the positive and negative controls were averaged, and the standard deviation calculated. Percent inhibition was calculated by the formula: 100× (average negative control−compound)/(average negative control−average positive control). The IC50 for each compound was calculated by fitting the data with a non-linear regression equation: Y=Bottom+(Top-Bottom)/(1+10^((Log IC50−X)*HillSlope)), where X is the log of compound concentration and Y is percent inhibition.
The compound numbers correspond to the compound numbers in Table 1.

Sequence of ACC2 (O00763 whole entry, species assumed): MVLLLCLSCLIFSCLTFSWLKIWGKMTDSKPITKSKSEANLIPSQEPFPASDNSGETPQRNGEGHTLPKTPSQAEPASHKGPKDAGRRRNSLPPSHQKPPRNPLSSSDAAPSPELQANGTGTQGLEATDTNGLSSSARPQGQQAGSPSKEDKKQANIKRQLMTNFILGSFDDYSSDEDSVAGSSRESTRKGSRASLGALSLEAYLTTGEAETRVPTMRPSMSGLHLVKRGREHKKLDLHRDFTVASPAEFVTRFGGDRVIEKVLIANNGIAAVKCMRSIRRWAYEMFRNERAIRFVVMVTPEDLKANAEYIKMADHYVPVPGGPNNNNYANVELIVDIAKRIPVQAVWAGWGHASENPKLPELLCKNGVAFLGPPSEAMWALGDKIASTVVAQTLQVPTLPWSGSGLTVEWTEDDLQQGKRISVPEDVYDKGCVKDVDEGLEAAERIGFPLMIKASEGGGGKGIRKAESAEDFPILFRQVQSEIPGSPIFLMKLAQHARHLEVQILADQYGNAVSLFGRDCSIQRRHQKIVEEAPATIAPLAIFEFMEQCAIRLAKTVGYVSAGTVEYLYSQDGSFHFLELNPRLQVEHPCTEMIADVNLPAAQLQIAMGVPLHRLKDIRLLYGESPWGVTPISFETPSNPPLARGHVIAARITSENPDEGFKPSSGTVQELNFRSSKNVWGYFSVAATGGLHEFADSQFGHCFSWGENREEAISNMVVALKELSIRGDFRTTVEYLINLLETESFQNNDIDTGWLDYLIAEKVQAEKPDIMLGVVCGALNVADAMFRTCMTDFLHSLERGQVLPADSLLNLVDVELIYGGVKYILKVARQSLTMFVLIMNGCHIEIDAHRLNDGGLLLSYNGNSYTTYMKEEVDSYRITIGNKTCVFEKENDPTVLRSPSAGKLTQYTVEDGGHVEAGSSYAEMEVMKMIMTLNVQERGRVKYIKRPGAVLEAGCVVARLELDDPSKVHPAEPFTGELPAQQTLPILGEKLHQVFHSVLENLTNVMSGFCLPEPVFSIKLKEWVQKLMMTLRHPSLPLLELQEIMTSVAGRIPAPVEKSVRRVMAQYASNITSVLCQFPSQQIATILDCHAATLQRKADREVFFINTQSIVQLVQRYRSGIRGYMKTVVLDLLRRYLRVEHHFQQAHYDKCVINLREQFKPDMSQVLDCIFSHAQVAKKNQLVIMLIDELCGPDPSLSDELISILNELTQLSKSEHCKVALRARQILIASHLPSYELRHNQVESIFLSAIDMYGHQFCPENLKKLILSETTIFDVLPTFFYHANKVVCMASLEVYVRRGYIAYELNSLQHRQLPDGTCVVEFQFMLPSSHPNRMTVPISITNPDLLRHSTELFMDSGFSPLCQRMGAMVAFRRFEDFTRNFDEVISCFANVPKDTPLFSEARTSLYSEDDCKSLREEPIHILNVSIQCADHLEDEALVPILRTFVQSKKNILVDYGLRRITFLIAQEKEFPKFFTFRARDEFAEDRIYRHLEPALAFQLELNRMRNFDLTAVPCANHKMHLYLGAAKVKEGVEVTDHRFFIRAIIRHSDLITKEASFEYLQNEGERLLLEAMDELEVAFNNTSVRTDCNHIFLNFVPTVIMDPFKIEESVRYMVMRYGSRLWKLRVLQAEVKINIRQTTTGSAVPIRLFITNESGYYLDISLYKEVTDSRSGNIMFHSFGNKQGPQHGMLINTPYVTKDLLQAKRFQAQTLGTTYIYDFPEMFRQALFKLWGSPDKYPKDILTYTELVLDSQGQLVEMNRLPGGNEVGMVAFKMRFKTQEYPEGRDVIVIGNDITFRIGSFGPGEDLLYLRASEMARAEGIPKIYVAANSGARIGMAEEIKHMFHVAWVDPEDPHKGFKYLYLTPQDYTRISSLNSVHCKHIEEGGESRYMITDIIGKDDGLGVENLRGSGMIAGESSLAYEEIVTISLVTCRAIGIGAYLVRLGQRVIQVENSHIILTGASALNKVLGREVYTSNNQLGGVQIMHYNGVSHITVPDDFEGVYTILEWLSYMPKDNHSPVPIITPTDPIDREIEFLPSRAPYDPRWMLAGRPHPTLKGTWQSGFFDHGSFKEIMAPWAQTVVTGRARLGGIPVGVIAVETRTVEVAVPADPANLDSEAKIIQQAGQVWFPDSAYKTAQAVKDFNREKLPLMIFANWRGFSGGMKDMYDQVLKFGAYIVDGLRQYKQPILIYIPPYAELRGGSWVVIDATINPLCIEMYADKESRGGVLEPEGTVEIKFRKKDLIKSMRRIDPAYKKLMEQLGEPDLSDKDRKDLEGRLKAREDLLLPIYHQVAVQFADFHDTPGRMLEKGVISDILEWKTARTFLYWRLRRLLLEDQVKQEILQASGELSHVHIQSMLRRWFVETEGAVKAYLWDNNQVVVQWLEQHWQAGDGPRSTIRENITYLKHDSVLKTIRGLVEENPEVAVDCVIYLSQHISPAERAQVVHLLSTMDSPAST

Question: Which IC50 does the source give for `CCOC(=O)c1sc2c(c1C)c(=O)n(C(C)(C)C(=O)O)c(=O)n2CC(O)c1ccccc1` (stereo in doubt) [I-103, 2-[6-(ethoxycarbonyl)-1-[(2S)-2-hydroxy-2-phenylethyl]-5-methyl-2,4-dioxo-1H,2H,3H,4H-thieno[2,3-d]pyrimidin-3-yl]-2-methylpropanoic acid] here?
Answer: Its IC50 is < 1 µM.

Question: How did the IC50 turn out when `CCOC(=O)c1sc2c(c1C)c(=O)n(CC(=O)O)c(=O)n2CC(OC)c1ccccc1` (stereo in doubt) [I-105, 2-[6-(ethoxycarbonyl)-1-[(2S)-2-methoxy-2-phenylethyl]-5-methyl-2,4-dioxo-1H,2H,3H,4H-thieno[2,3-d]pyrimidin-3-yl]acetic acid] was run?
Answer: The IC50 was < 1 µM.

Question: With `O=C(O)Cn1c(=O)c2c3c(sc2n(CC(=O)c2ccccc2)c1=O)CCCC3` [I-2] as the compound, how does the IC50 read?
Answer: Its IC50 is > 50 µM.

Question: With `O=C(O)Cn1c(=O)c2c3c(sc2n(CCc2ccccc2)c1=O)CCCC3` [I-3] as the compound, how does the IC50 read?
Answer: The IC50 was 20 to 50 µM.

Question: `O=C(O)Cn1c(=O)c2c3c(sc2n(CCc2ccccc2)c1=O)CCC3` [I-4] was tested. Which IC50 did it give?
Answer: The IC50 was 20 to 50 µM.

Question: With `Cc1c(C(=O)O)sc2c1c(=O)n(CCO)c(=O)n2CCc1ccccc1` [I-5] as the compound, how does the IC50 read?
Answer: The IC50 was > 50 µM.

Question: Which IC50 does the source give for `CCOC(=O)c1sc2c(c1C)c(=O)n(CCOC)c(=O)n2CCc1ccccc1` [I-6, ethyl 3-(2-methoxyethyl)-5-methyl-2,4-dioxo-1-(2-phenylethyl)-1H,2H,3H,4H-thieno[2,3-d]pyrimidine-6-carboxylate] here?
Answer: The IC50 was 20 to 50 µM.

Question: How did the IC50 turn out when `CCOC(=O)c1sc2c(c1C)c(=O)n(CC)c(=O)n2CCc1ccccc1` [I-7, ethyl 3-ethyl-5-methyl-2,4-dioxo-1-(2-phenylethyl)-1H,2H,3H,4H-thieno[2,3-d]pyrimidine-6-carboxylate] was run?
Answer: The IC50 was > 50 µM.

Question: How did the IC50 turn out when `CCOC(=O)c1sc2c(c1C)c(=O)n(CC(=O)OC(C)(C)C)c(=O)n2CCc1ccccc1` [I-8] was run?
Answer: The IC50 was 5 to 20 µM.

Question: With `CCCn1c(=O)c2c(C)c(C(=O)OCC)sc2n(CCc2ccccc2)c1=O` [I-9, ethyl 5-methyl-2,4-dioxo-1-(2-phenylethyl)-3-propyl-1H,2H,3H,4H-thieno[2,3-d]pyrimidine-6-carboxylate] as the compound, how does the IC50 read?
Answer: Its IC50 is > 50 µM.

Question: `CCOC(=O)c1sc2c(c1C)c(=O)n(CCOCc1ccccc1)c(=O)n2CCc1ccccc1` [I-10, ethyl 3-[2-(benzyloxy)ethyl]-5-methyl-2,4-dioxo-1-(2-phenylethyl)-1H,2H,3H,4H-thieno[2,3-d]pyrimidine-6-carboxylate] was tested. Which IC50 did it give?
Answer: The IC50 was > 50 µM.

Question: For `CCOC(=O)c1sc2c(c1C)c(=O)n(CCO)c(=O)n2CC` [I-11, ethyl 1-ethyl-3-(2-hydroxyethyl)-5-methyl-2,4-dioxo-1H,2H,3H,4H-thieno[2,3-d]pyrimidine-6-carboxylate], which IC50 is on record?
Answer: The IC50 was > 50 µM.

Question: For `CCOC(=O)c1sc2c(c1C)c(=O)n(CCO)c(=O)n2CCCc1ccccc1` [I-12], which IC50 is on record?
Answer: The IC50 was > 50 µM.

Question: How did the IC50 turn out when `CCOC(=O)c1sc2c(c1C)c(=O)n(CCO)c(=O)n2Cc1cccc2ccccc12` [I-15] was run?
Answer: The IC50 was > 50 µM.

Question: `CCOC(=O)c1sc2c(c1C)c(=O)n(CCO)c(=O)n2Cc1ccc2ccccc2c1` [I-16, ethyl 3-(2-hydroxyethyl)-5-methyl-1-(naphthalen-2-ylmethyl)-2,4-dioxo-1H,2H,3H,4H-thieno[2,3-d]pyrimidine-6-carboxylate] was tested. Which IC50 did it give?
Answer: Its IC50 is > 50 µM.

Question: With `CCOC(=O)c1sc2c(c1C)c(=O)n(CCO)c(=O)n2CCc1ccc(Cl)cc1` [I-17] as the compound, how does the IC50 read?
Answer: The IC50 was > 50 µM.

Question: With `CCNC(=O)c1sc2c(c1C)c(=O)n(CCO)c(=O)n2CCc1ccccc1` [I-18] as the compound, how does the IC50 read?
Answer: Its IC50 is > 50 µM.

Question: Which IC50 does the source give for `CCOC(=O)c1sc2c(c1C)c(=O)n(CCO)c(=O)n2CCc1cccc(Cl)c1` [I-21] here?
Answer: The IC50 was > 50 µM.

Question: For `CCOC(=O)c1sc2c(c1C)c(=O)n(CCO)c(=O)n2CCc1cccc2ccccc12` [I-22], which IC50 is on record?
Answer: Its IC50 is > 50 µM.

Question: Which IC50 does the source give for `CCOC(=O)c1sc2c(c1C)c(=O)n(CCO)c(=O)n2CCc1ccccc1F` [I-23, ethyl 1-[2-(2-fluorophenyl)ethyl]-3-(2-hydroxyethyl)-5-methyl-2,4-dioxo-1H,2H,3H,4H-thieno[2,3-d]pyrimidine-6-carboxylate] here?
Answer: Its IC50 is 20 to 50 µM.

Question: Which IC50 does the source give for `CCOC(=O)c1sc2c(c1C)c(=O)n(CCO)c(=O)n2CCc1c(F)cccc1F` [I-24] here?
Answer: The IC50 was > 50 µM.

Question: With `COC(=O)c1sc2c(c1C)c(=O)n(CCO)c(=O)n2CCc1c(F)cccc1F` [I-25] as the compound, how does the IC50 read?
Answer: The IC50 was > 50 µM.

Question: Which IC50 does the source give for `CCOC(=O)c1sc2c(c1C)c(=O)n(CCO)c(=O)n2CCc1ccc(F)cc1` [I-26, ethyl 1-[2-(4-fluorophenyl)ethyll]-3-(2-hydroxyethyl)-5-methyl-2,4-dioxo-1H,2H,3H,4H-thieno[2,3-d]pyrimidine-6-carboxylate] here?
Answer: The IC50 was 5 to 20 µM.

Question: How did the IC50 turn out when `CNC(=O)c1sc2c(c1C)c(=O)n(CCO)c(=O)n2CCc1ccccc1` [I-27] was run?
Answer: Its IC50 is > 50 µM.

Question: For `CCOC(=O)c1sc2c(c1C)c(=O)n(CCO)c(=O)n2CCC1CCCCC1` [I-28], which IC50 is on record?
Answer: The IC50 was > 50 µM.

Question: With `CCOC(=O)c1sc2c(c1C)c(=O)n(CCO)c(=O)n2CCc1cc(F)cc(F)c1` [I-29, ethyl 1-[2-(3,5-difluorophenyl)ethyl]-3-(2-hydroxyethyl)-5-methyl-2,4-dioxo-1H,2H,3H,4H-thieno[2,3-d]pyrimidine-6-carboxylate] as the compound, how does the IC50 read?
Answer: Its IC50 is > 50 µM.

Question: With `CCOC(=O)c1sc2c(c1C)c(=O)n(CCO)c(=O)n2CCc1ccc2ccccc2c1` [I-30, ethyl 3-(2-hydroxyethyl)-5-methyl-1-[2-(naphthalen-2-yl)ethyl]-2,4-dioxo-1H,2H,3H,4H-thieno[2,3-d]pyrimidine-6-carboxylate] as the compound, how does the IC50 read?
Answer: The IC50 was > 50 µM.

Question: Which IC50 does the source give for `CCOC(=O)c1sc2c(c1C)c(=O)n(CCCCO)c(=O)n2CCc1ccccc1` [I-34, ethyl 3-(4-hydroxybutyl)-5-methyl-2,4-dioxo-1-(2-phenylethyl)-1H,2H,3H,4H-thieno[2,3-d]pyrimidine-6-carboxylate] here?
Answer: Its IC50 is 5 to 20 µM.

Question: How did the IC50 turn out when `CCOC(=O)c1sc2c(c1C)c(=O)n(CCO)c(=O)n2Cc1csc(C)n1` [I-35] was run?
Answer: Its IC50 is > 50 µM.

Question: Which IC50 does the source give for `CCOC(=O)c1sc2c(c1C)c(=O)n(CCO)c(=O)n2C(C)Cc1ccccc1` (stereo not shown) [I-36, ethyl 3-(2-hydroxyethyl)-5-methyl-2,4-dioxo-1-(1-phenylpropan-2-yl)-1H,2H,3H,4H-thieno[2,3-d]pyrimidine-6-carboxylate] here?
Answer: The IC50 was 20 to 50 µM.

Question: For `COC(=O)c1sc2c(c1C)c(=O)n(CCO)c(=O)n2CCc1ccccc1` [I-37, methyl 3-(2-hydroxyethyl)-5-methyl-2,4-dioxo-1-(2-phenylethyl)-1H,2H,3H,4H-thieno[2,3-d]pyrimidine-6-carboxylate], which IC50 is on record?
Answer: The IC50 was 5 to 20 µM.

Question: Which IC50 does the source give for `CCOCc1sc2c(c1C)c(=O)n(CCO)c(=O)n2CCc1ccccc1` [I-38, 6-(ethoxymethyl)-3-(2-hydroxyethyl)-5-methyl-1-(2-phenylethyl)-1H,2H,3H,4H-thieno[2,3-d]pyrimidine-2,4-dione] here?
Answer: Its IC50 is > 50 µM.

Question: Which IC50 does the source give for `COCc1sc2c(c1C)c(=O)n(CCO)c(=O)n2CCc1ccccc1` [I-39, 3-(2-hydroxyethyl)-6-(methoxymethyl)-5-methyl-1-(2-phenylethyl)-1H,2H,3H,4H-thieno[2,3-d]pyrimidine-2,4-dione] here?
Answer: The IC50 was 20 to 50 µM.

Question: For `CCCOC(=O)c1sc2c(c1C)c(=O)n(CCO)c(=O)n2CCc1ccccc1` [I-41, propyl 3-(2-hydroxyethyl)-5-methyl-2,4-dioxo-1-(2-phenylethyl)-1H,2H,3H,4H-thieno[2,3-d]pyrimidine-6-carboxylate], which IC50 is on record?
Answer: The IC50 was > 50 µM.

Question: Which IC50 does the source give for `Cc1c(C(=O)OCCO)sc2c1c(=O)n(CCO)c(=O)n2CCc1ccccc1` [I-42, 2-hydroxyethyl 3-(2-hydroxyethyl)-5-methyl-2,4-dioxo-1-(2-phenylethyl)-1H,2H,3H,4H-thieno[2,3-d]pyrimidine-6-carboxylate] here?
Answer: The IC50 was 20 to 50 µM.

Question: Which IC50 does the source give for `CCOC(=O)c1sc2c(c1C)c(=O)n(CC#N)c(=O)n2CCc1ccccc1` [I-43] here?
Answer: The IC50 was 5 to 20 µM.

Question: `CCOC(=O)c1sc2c(c1C)c(=O)n(CCO)c(=O)n2CCc1nc2ccccc2s1` [I-44] was tested. Which IC50 did it give?
Answer: Its IC50 is > 50 µM.
